2 molecules from patent publication US9006221B2, “Method of modulating ship activity” (H. Lee Moffitt Cancer Center and Reserach Institute, Inc., priority 2008, dated 2015) can be followed below.

The test system of this assay is priming of allogeneic T cell responses. Put plainly: MLR with splenocytes from inhibitor-treated mice as stimulators. The assay is classed as in vivo, mouse. The source says:
FACS quantitation of Mac1^+Gr1^+ MIR cells in spleen (A) and lymph node (B) of C57BL/6 mice treated with the SHIP1 inhibitor (Compound), vehicle (Vehicle) or unmanipulated controls (Normal) as indicated. (C) Mixed-Leukocyte-Reactions (MLR) where splenocytes from SHIP1 inhibitor-treated C57BL6 (H2b) mice were used as stimulators for BALB/C (H2d) responders. In parallel splenocytes from either unmanipulated (Normal) or Vehicle treated C57BL6 mice were used as positive controls for the MLR. […] (D) Human PBMC were pre-treated for 24 hr with 3α-aminocholestane (Compound) or vehicle, irradiated and then used as stimulators for untreated PBMC from a different donor in a one-way MLR. [BALB/C=responder splenocytes not mixed with BL6 stimulators; Stim=irradiated, SHIP1 inhibitor-treated human PBMC absent responder PBMC; Resp=human PBMC responders absent allogeneic stimulators; Media, media to which only [3H]thymidine was added]. […] (E) SHIP1 inhibition increases circulating granulocyte/neutrophil numbers. Mice were treated daily for 7 days with 60 μM SHIP1 inhibitor (Compound), its vehicle (Vehicle) or were unmanipulated (Normal). Absolute peripheral blood granulocyte numbers were determined by an automated blood cell analyzer. […]

As for `OC(c1cc(-c2ccccc2)nc2c1ccc1ccccc12)C1CCCCN1` (centres unmarked) [NSC13480, (2-phenylbenzo[h]quinolin-4-yl)-piperidin-2-ylmethanol], the “allogeneic T cell priming by splenocytes from treated mice” value (splenocytes from three NSC13480 treated mice as stimulators, MHC mismatched responders) was “profound inhibition”.

With `CC(C)CCC[C@@H](C)[C@H]1CC[C@H]2[C@@H]3CC[C@H]4C[C@H](N)CC[C@]4(C)[C@H]3CC[C@]12C` [NSC23922, (3R,5S,8R,9S,10S,13R,14S,17R)-10,13-dimethyl-17-[(2R)-6-methylheptan-2-yl]-2,3,4,5,6,7,8,9,11,12,14,15,16,17-tetradecahydro-1H-cyclopenta[a]phenanthren-3-amine], the “ability of splenocytes from treated mice to stimulate allogeneic T cell responses” value (H2b mice treated daily i.p. 60 μM for 7 days, H2d responder splenocytes) was “profoundly impaired”.
